Earlier results, collected in US20180036237A1, “OIL/SURFACTANT MIXTURES FOR SELF-EMULSIFICATION” (priority 2015, published 2018).

Conditions: single surfactant

Substance: polyoxyethylene cetostearyl ether
- HLB: 13.5
